Experimental data: ChEMBL document CHEMBL1201862, “PubChem BioAssay data set” (2004)
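Exposure lasted 48 hours, with cells grown in 96-well plates and compounds tested at five concentrations. GI50: concentration for 50% inhibition of growth.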 Active and inactive are the calls of the source. Rule as the data show it: active = GI50 up to about 1.1 µM and inactive = higher.

How the values were obtained:
Test in all cases: NCI-60 cell line screen, 48 h
[1] = system: DU-145
[2] = system: CAKI-1
[3] = system: UACC-257
[4] = system: HL-60
[5] = system: Hs-578T
[6] = system: K562
[7] = system: HCT-15
[8] = system: EKVX
[9] = system: OVCAR-8
[10] = system: MOLT-4
[11] = system: MDA-N
[12] = system: SK-MEL-28
[13] = system: 786-0
[14] = system: KM12
[15] = system: TK-10
[16] = system: SK-MEL-2
[17] = system: ACHN
[18] = system: MDA-MB-435
[19] = system: UO-31
[20] = system: NCI/ADR-RES

Row | SMILES | GI50 [1] | GI50 [2] | GI50 [3] | GI50 [4] | GI50 [5] | GI50 [6] | GI50 [7] [µM] | GI50 [8] | GI50 [9] | GI50 [10] | GI50 [11] | GI50 [12] | GI50 [13] | GI50 [14] | GI50 [15] | GI50 [16] | GI50 [17] | GI50 [18] | GI50 [19] | GI50 [20]
1 | CC(C)(C)NC(NC(C)(C)C)=C(/C=C(/Cl)[N+](=O)[O-])[N+](=O)[O-] | > 100 µM (inactive) | > 100 µM (inactive) | 94 µM (inactive) | 29.5 µM (inactive) | 56.9 µM (inactive) | 55.1 µM (inactive) | 73.1 | > 100 µM (inactive) | 38.7 µM (inactive) | 48.3 µM (inactive) | 26.2 µM (inactive) | > 100 µM (inactive) | 34.7 µM (inactive) | > 100 µM (inactive) | > 100 µM (inactive) | > 100 µM (inactive) | 65.3 µM (inactive) | 19.5 µM (inactive) | > 100 µM (inactive) | –
2 | N#C[C@H](c1nc2ccccc2s1)c1nc2ccccc2nc1Cl | – | > 100 µM (inactive) | 14.7 µM (inactive) | > 100 µM (inactive) | 94.6 µM (inactive) | – | 4.04 | > 100 µM (inactive) | > 100 µM (inactive) | > 100 µM (inactive) | > 100 µM (inactive) | > 100 µM (inactive) | > 100 µM (inactive) | 80.9 µM (inactive) | – | 33.7 µM (inactive) | 14.2 µM (inactive) | > 100 µM (inactive) | 23.3 µM (inactive) | > 100 µM (inactive)
3 | O=C(/C=C/c1cc(F)ccc1F)OCCc1ccccc1 | – | > 100 µM (inactive) | > 100 µM (inactive) | 16.4 µM (inactive) | 1.67 µM (inactive) | 52.1 µM (inactive) | 35.6 | > 100 µM (inactive) | > 100 µM (inactive) | 49.3 µM (inactive) | 91.4 µM (inactive) | > 100 µM (inactive) | 89.3 µM (inactive) | 96.2 µM (inactive) | > 100 µM (inactive) | > 100 µM (inactive) | > 100 µM (inactive) | > 100 µM (inactive) | 95.7 µM (inactive) | > 100 µM (inactive)
4 | C[C@H]1CC[C@@]2(NC1)O[C@H]1C[C@H]3[C@@H]4CC[C@H]5C[C@@H](O)CC[C@]5(C)[C@H]4CC[C@]3(C)[C@H]1[C@@H]2C | > 100 µM (inactive) | > 100 µM (inactive) | > 100 µM (inactive) | 51.1 µM (inactive) | 47 µM (inactive) | > 100 µM (inactive) | 42.7 | > 100 µM (inactive) | 38.8 µM (inactive) | > 100 µM (inactive) | > 100 µM (inactive) | – | 39.9 µM (inactive) | 71.8 µM (inactive) | > 100 µM (inactive) | > 100 µM (inactive) | 39.5 µM (inactive) | – | > 100 µM (inactive) | 49.2 µM (inactive)
5 | O=C(CCCNc1nc(-c2ccccc2)cs1)c1cccs1 | – | > 100 µM (inactive) | > 100 µM (inactive) | – | > 100 µM (inactive) | > 100 µM (inactive) | > 100 | > 100 µM (inactive) | > 100 µM (inactive) | > 100 µM (inactive) | > 100 µM (inactive) | > 100 µM (inactive) | > 100 µM (inactive) | > 100 µM (inactive) | > 100 µM (inactive) | > 100 µM (inactive) | > 100 µM (inactive) | > 100 µM (inactive) | > 100 µM (inactive) | > 100 µM (inactive)
6 | Cc1cccc(/C=C2\CCCCCC2=O)c1 | > 100 µM (inactive) | > 100 µM (inactive) | > 100 µM (inactive) | < 0.01 µM (active) | > 100 µM (inactive) | > 100 µM (inactive) | > 100 | > 100 µM (inactive) | – | 99.8 µM (inactive) | > 100 µM (inactive) | > 100 µM (inactive) | > 100 µM (inactive) | > 100 µM (inactive) | > 100 µM (inactive) | > 100 µM (inactive) | > 100 µM (inactive) | > 100 µM (inactive) | > 100 µM (inactive) | –
